Test results: article PMC5218480 (PLoS ONE, 2017)

System: MV-4-11 cells
Experiment: Gene expression microarray analysis (Affymetrix PrimeView) and GSEA
Type: cell-based, human
Parameters: RFU PODN (11730768_x_at) / Fold change /veh PODN (11730768_x_at) / RFU LINC00158 (11744669_a_at) / Fold change /veh LINC00158 (11744669_a_at) / RFU DUSP10 (11751237_a_at) / Fold change /veh DUSP10 (11751237_a_at) / RFU ID3 (11757404_x_at) / Fold change /veh ID3 (11757404_x_at) / RFU PLEKHG5 (11737974_s_at) / Fold change /veh PLEKHG5 (11737974_s_at) / RFU LRRC4B (11730491_at) / Fold change /veh LRRC4B (11730491_at) / RFU GIMAP4 (11747438_a_at) / Fold change /veh GIMAP4 (11747438_a_at) / RFU KRT8 (11758183_x_at) / Fold change /veh KRT8 (11758183_x_at) / RFU CNN1 (11734310_a_at) / Fold change /veh CNN1 (11734310_a_at) / RFU VPS37D (11726825_at) / Fold change /veh VPS37D (11726825_at) / RFU C10orf10 (11716522_x_at) / Fold change /veh C10orf10 (11716522_x_at) / RFU KIR2DL2 /// KIR2DL4 /// KIR2DL5A /// KIR2DL5B /// KIR2DS1 /// KIR2DS2 /// KIR2DS3 /// KIR2DS4 /// KIR3DL3 /// KIR3DL3 /// KIR3DS1 (11738374_at) / Fold change /veh KIR2DL2 /// KIR2DL4 /// KIR2DL5A /// KIR2DL5B /// KIR2DS1 /// KIR2DS2 /// KIR2DS3 /// KIR2DS4 /// KIR3DL3 /// KIR3DL3 /// KIR3DS1 (11738374_at) / RFU C1QL1 (11718748_at) / Fold change /veh C1QL1 (11718748_at) / RFU TMPRSS4 (11747572_a_at) / Fold change /veh TMPRSS4 (11747572_a_at) / RFU HAMP (11756126_x_at) / Fold change /veh HAMP (11756126_x_at) / RFU RNFT2 (11725882_a_at) / Fold change /veh RNFT2 (11725882_a_at) / RFU NR4A2 (11747474_a_at) / Fold change /veh NR4A2 (11747474_a_at) / RFU ABCC12 (11746883_a_at) / Fold change /veh ABCC12 (11746883_a_at) / RFU TMEM136 (11760407_x_at) / Fold change /veh TMEM136 (11760407_x_at) / RFU CLDN22 /// WWC2 (11732394_at) / Fold change /veh CLDN22 /// WWC2 (11732394_at) / RFU HLA-DPB1 (11760878_x_at) / Fold change /veh HLA-DPB1 (11760878_x_at) / RFU SPINT1 (11716480_a_at) / Fold change /veh SPINT1 (11716480_a_at) / RFU GAP43 (11754022_s_at) / Fold change /veh GAP43 (11754022_s_at) / RFU A4GNT (11735810_at) / Fold change /veh A4GNT (11735810_at) / RFU PRB3 (11715151_x_at) / Fold change /veh PRB3 (11715151_x_at) / RFU TUBB4B (11761932_at) / Fold change /veh TUBB4B (11761932_at) / RFU CAPN14 (11732068_a_at) / Fold change /veh CAPN14 (11732068_a_at) / RFU TMCC2 (11721928_a_at) / Fold change /veh TMCC2 (11721928_a_at) / RFU IRGQ (11745062_a_at) / Fold change /veh IRGQ (11745062_a_at) / RFU FAM174B (11720279_a_at) / Fold change /veh FAM174B (11720279_a_at) / RFU TMPRSS4 (11748680_a_at) / Fold change /veh TMPRSS4 (11748680_a_at) / RFU FAM212B (11763350_a_at) / Fold change /veh FAM212B (11763350_a_at) / RFU PLEKHG5 (11743358_a_at) / Fold change /veh PLEKHG5 (11743358_a_at) / RFU ZSCAN30 (11745921_a_at) / Fold change /veh ZSCAN30 (11745921_a_at) / RFU CMKLR1 (11741424_a_at) / Fold change /veh CMKLR1 (11741424_a_at) / RFU LOC101060620 /// MAPK8IP1 (11723275_at) / Fold change /veh LOC101060620 /// MAPK8IP1 (11723275_at) / RFU SPTSSB (11747773_x_at) / Fold change /veh SPTSSB (11747773_x_at) / RFU PRSS12 (11739890_at) / Fold change /veh PRSS12 (11739890_at) / RFU BIN1 (11741810_x_at) / Fold change /veh BIN1 (11741810_x_at) / RFU WNT11 (11732464_a_at) / Fold change /veh WNT11 (11732464_a_at) / RFU C10orf10 (11716521_a_at) / Fold change /veh C10orf10 (11716521_a_at) / RFU C5orf56 (11738089_at) / Fold change /veh C5orf56 (11738089_at) / RFU CYB561 (11721691_x_at) / Fold change /veh CYB561 (11721691_x_at) / RFU ANKRD19P (11752326_a_at) / Fold change /veh ANKRD19P (11752326_a_at) / RFU OR2T12 /// OR2T33 /// OR2T8 (11738714_s_at) / Fold change /veh OR2T12 /// OR2T33 /// OR2T8 (11738714_s_at) / RFU VCAN (11748164_a_at) / Fold change /veh VCAN (11748164_a_at) / RFU JSRP1 (11732532_at) / Fold change /veh JSRP1 (11732532_at) / RFU KRTAP10-11 (11738290_x_at) / Fold change /veh KRTAP10-11 (11738290_x_at) / RFU MYO3A (11730013_a_at) / Fold change /veh MYO3A (11730013_a_at) / RFU EBF3 (11725865_a_at) / Fold change /veh EBF3 (11725865_a_at) / RFU CAMK2N1 (11719241_x_at) / Fold change /veh CAMK2N1 (11719241_x_at) / RFU C5orf56 (11738088_a_at) / Fold change /veh C5orf56 (11738088_a_at) / RFU OLFML3 (11715873_a_at) / Fold change /veh OLFML3 (11715873_a_at) / RFU LOC100653217 /// NTM (11731650_a_at) / Fold change /veh LOC100653217 /// NTM (11731650_a_at) / RFU MAPK11 (11762145_a_at) / Fold change /veh MAPK11 (11762145_a_at) / RFU FIZ1 (11724087_x_at) / Fold change /veh FIZ1 (11724087_x_at) / RFU OASL (11726364_x_at) / Fold change /veh OASL (11726364_x_at) / RFU SOX15 (11748057_x_at) / Fold change /veh SOX15 (11748057_x_at) / RFU CD79A (11719716_a_at) / Fold change /veh CD79A (11719716_a_at) / RFU HIST1H1D (11736915_at) / Fold change /veh HIST1H1D (11736915_at) / RFU CASKIN2 (11723855_a_at) / Fold change /veh CASKIN2 (11723855_a_at) / RFU LOC730098 (11760151_x_at) / Fold change /veh LOC730098 (11760151_x_at) / RFU OR4N2 (11742367_at) / Fold change /veh OR4N2 (11742367_at) / RFU PRRT2 (11749266_a_at) / Fold change /veh PRRT2 (11749266_a_at) / RFU SNX32 (11753110_a_at) / Fold change /veh SNX32 (11753110_a_at) / RFU CDHR5 (11726645_a_at) / Fold change /veh CDHR5 (11726645_a_at) / RFU RCAN1 (11760418_a_at) / Fold change /veh RCAN1 (11760418_a_at) / RFU FAM167A (11723789_a_at) / Fold change /veh FAM167A (11723789_a_at) / RFU FAM26E (11764081_at) / Fold change /veh FAM26E (11764081_at) / RFU ISYNA1 (11749810_s_at) / Fold change /veh ISYNA1 (11749810_s_at) / RFU ACY1 (11761880_at) / Fold change /veh ACY1 (11761880_at) / RFU 11764098_at / Fold change /veh 11764098_at / RFU SAMD14 (11745864_x_at) / Fold change /veh SAMD14 (11745864_x_at) / RFU NPB (11741838_a_at) / Fold change /veh NPB (11741838_a_at) / RFU TMPRSS6 (11731388_a_at) / Fold change /veh TMPRSS6 (11731388_a_at) / RFU KRTAP10-2 (11738614_at) / Fold change /veh KRTAP10-2 (11738614_at) / RFU ARHGAP8 /// PRR5-ARHGAP8 (11727945_x_at) / Fold change /veh ARHGAP8 /// PRR5-ARHGAP8 (11727945_x_at) / RFU KRTAP5-7 /// NADSYN1 (11734609_at) / Fold change /veh KRTAP5-7 /// NADSYN1 (11734609_at) / RFU RASL12 (11751679_a_at) / Fold change /veh RASL12 (11751679_a_at) / RFU CDKN2B (11736163_a_at) / Fold change /veh CDKN2B (11736163_a_at) / RFU PRF1 (11729649_at) / Fold change /veh PRF1 (11729649_at) / RFU, ZNF638 /// ZNF638-IT1 / Fold change vs veh, ZNF638 /// ZNF638-IT1 / RFU, PANK3 / Fold change vs veh, PANK3 / RFU, SH3YL1 / Fold change vs veh, SH3YL1 / RFU, ZEB2 / Fold change vs veh, ZEB2 / RFU, NRIP1 / Fold change vs veh, NRIP1 / RFU, PTTG1IP / Fold change vs veh, PTTG1IP / RFU, CAPN2 / Fold change vs veh, CAPN2 / RFU, MED14 / Fold change vs veh, MED14 / RFU, SNORA58 / Fold change vs veh, SNORA58 / RFU, C1orf63 / Fold change vs veh, C1orf63 / RFU, LRRFIP1 / Fold change vs veh, LRRFIP1 / RFU, NDUFAF7 / Fold change vs veh, NDUFAF7 / RFU, SLC12A2 / Fold change vs veh, SLC12A2 / RFU, IBTK / Fold change vs veh, IBTK / RFU, ESF1 / Fold change vs veh, ESF1 / Fold change vs veh, TMEM50B / RFU, TAOK1 / Fold change vs veh, TAOK1 / RFU, ACBD3 / Fold change vs veh, ACBD3 / RFU, TMA16 / Fold change vs veh, TMA16 / RFU, RWDD3 / Fold change vs veh, RWDD3 / RFU, BCAT1 / Fold change vs veh, BCAT1 / RFU, EDEM3 / Fold change vs veh, EDEM3 / RFU, TMEM33 / Fold change vs veh, TMEM33 / RFU, WDR75 / Fold change vs veh, WDR75 / RFU, AHCTF1 / Fold change vs veh, AHCTF1 / RFU, TFRC / Fold change vs veh, TFRC / RFU, ZDHHC17 / Fold change vs veh, ZDHHC17 / RFU, NOM1 / Fold change vs veh, NOM1 / RFU, ARL8B / Fold change vs veh, ARL8B / RFU, ZBTB11 / Fold change vs veh, ZBTB11 / RFU, TAMM41 / Fold change vs veh, TAMM41 / RFU, KIAA1704 /// LOC100996395 / Fold change vs veh, KIAA1704 /// LOC100996395 / RFU, ING1 / Fold change vs veh, ING1 / RFU, TRMT61B / Fold change vs veh, TRMT61B / RFU, FUBP3 / Fold change vs veh, FUBP3 / RFU, TP53 / Fold change vs veh, TP53 / RFU, TNKS2 / Fold change vs veh, TNKS2 / RFU, ZFP14 / Fold change vs veh, ZFP14 / RFU, ACTR2 / Fold change vs veh, ACTR2 / RFU, PPP3R1 / Fold change vs veh, PPP3R1 / RFU, PIK3R1 / Fold change vs veh, PIK3R1 / RFU, HNRNPA1 / Fold change vs veh, HNRNPA1 / RFU, RNF170 / Fold change vs veh, RNF170 / RFU, ZNF28 / Fold change vs veh, ZNF28 / RFU, RNGTT / Fold change vs veh, RNGTT / RFU, OGT / Fold change vs veh, OGT / RFU, BRD1 / Fold change vs veh, BRD1 / RFU, MARS / Fold change vs veh, MARS / RFU, ZNF655 / Fold change vs veh, ZNF655 / RFU, FAHD1 / Fold change vs veh, FAHD1 / RFU, BDP1 / Fold change vs veh, BDP1 / RFU, LRRCC1 / Fold change vs veh, LRRCC1 / RFU, ARID1A / Fold change vs veh, ARID1A / RFU, ZNF146 / Fold change vs veh, ZNF146 / RFU, ZNF330 / Fold change vs veh, ZNF330 / RFU, GPN3 / Fold change vs veh, GPN3 / RFU, C9orf123 / Fold change vs veh, C9orf123 / RFU, N4BP2L2 / Fold change vs veh, N4BP2L2 / RFU, ARFIP1 / Fold change vs veh, ARFIP1 / RFU, FAM179B / Fold change vs veh, FAM179B / RFU, BCL10 / Fold change vs veh, BCL10 / RFU, UHRF1BP1L / Fold change vs veh, UHRF1BP1L / RFU, BET1 / Fold change vs veh, BET1 / RFU, CNOT2 / Fold change vs veh, CNOT2 / RFU, ZNF268 / Fold change vs veh, ZNF268 / Fold change vs veh, ZNF507 / RFU, DGCR2 / Fold change vs veh, DGCR2 / RFU, WDSUB1 / Fold change vs veh, WDSUB1 / Fold change vs veh, HSP90B1 /// MIR3652 / RFU, ADSS / Fold change vs veh, ADSS / RFU, GK / Fold change vs veh, GK / RFU, ZNF148 / Fold change vs veh, ZNF148 / RFU, TAF9 / Fold change vs veh, TAF9 / RFU, SLC1A5 / Fold change vs veh, SLC1A5 / RFU, SLMO2 / Fold change vs veh, SLMO2 / RFU, ABCC4 / Fold change vs veh, ABCC4 / RFU, LOC101060439 /// RAP1B / Fold change vs veh, LOC101060439 /// RAP1B / RFU, RFX7 / Fold change vs veh, RFX7 / RFU, GTPBP10 / Fold change vs veh, GTPBP10 / RFU, CNEP1R1 / Fold change vs veh, CNEP1R1 / RFU, BIVM-ERCC5 /// ERCC5 / Fold change vs veh, BIVM-ERCC5 /// ERCC5 / RFU, ILF3 / Fold change vs veh, ILF3 / RFU 11762660_at / Fold change /veh 11762660_at / RFU VCAN (11757783_s_at) / Fold change /veh VCAN (11757783_s_at) / RFU DDX43 (11728927_at) / Fold change /veh DDX43 (11728927_at) / RFU KRT8 (11758188_x_at) / Fold change /veh KRT8 (11758188_x_at) / RFU NKD1 (11759106_at) / Fold change /veh NKD1 (11759106_at) / RFU SRD5A1 (11742802_a_at) / Fold change /veh SRD5A1 (11742802_a_at) / RFU TPSAB1 /// TPSB2 (11721975_s_at) / Fold change /veh TPSAB1 /// TPSB2 (11721975_s_at) / RFU GSTM3 (11746129_a_at) / Fold change /veh GSTM3 (11746129_a_at) / RFU IL23R (11737362_x_at) / Fold change /veh IL23R (11737362_x_at) / RFU TMEM51 (11727254_a_at) / Fold change /veh TMEM51 (11727254_a_at) / RFU PIWIL2 (11732686_x_at) / Fold change /veh PIWIL2 (11732686_x_at) / RFU ORM1 (11744905_x_at) / Fold change /veh ORM1 (11744905_x_at) / RFU CCDC152 (11743942_at) / Fold change /veh CCDC152 (11743942_at) / RFU ECM1 (11717891_a_at) / Fold change /veh ECM1 (11717891_a_at) / RFU IL23R (11748794_a_at) / Fold change /veh IL23R (11748794_a_at) / RFU TNFAIP8L3 (11732012_x_at) / Fold change /veh TNFAIP8L3 (11732012_x_at) / RFU MBOAT4 (11741988_at) / Fold change /veh MBOAT4 (11741988_at) / RFU 11764193_at / Fold change /veh 11764193_at / RFU TMEM53 (11763286_at) / Fold change /veh TMEM53 (11763286_at) / RFU MAGEB2 (11727129_at) / Fold change /veh MAGEB2 (11727129_at) / RFU TMEM200A (11744735_a_at) / Fold change /veh TMEM200A (11744735_a_at) / RFU CCDC152 (11751479_a_at) / Fold change /veh CCDC152 (11751479_a_at) / RFU FAM211A (11726209_a_at) / Fold change /veh FAM211A (11726209_a_at) / RFU RGS16 (11746705_a_at) / Fold change /veh RGS16 (11746705_a_at) / RFU VCAN (11755009_s_at) / Fold change /veh VCAN (11755009_s_at) / RFU RHOB (11743442_s_at) / Fold change /veh RHOB (11743442_s_at) / RFU RGS16 (11720943_a_at) / Fold change /veh RGS16 (11720943_a_at) / RFU RGS16 (11720944_at) / Fold change /veh RGS16 (11720944_at) / RFU, VPS4B / Fold change vs veh, VPS4B / RFU, CREB1 / Fold change vs veh, CREB1 / RFU, DNAJC13 / Fold change vs veh, DNAJC13 / RFU, GNAQ / Fold change vs veh, GNAQ / RFU, CDK5R1 / Fold change vs veh, CDK5R1 / RFU, ZRANB3 / Fold change vs veh, ZRANB3 / RFU, CUL4A / Fold change vs veh, CUL4A / RFU, CCNY / Fold change vs veh, CCNY / RFU, UFL1 / Fold change vs veh, UFL1 / RFU, COG3 / Fold change vs veh, COG3 / RFU, DIAPH2 / Fold change vs veh, DIAPH2 / RFU, SKA2 / Fold change vs veh, SKA2 / RFU, AFF3 / Fold change vs veh, AFF3 / RFU, LMF1 / Fold change vs veh, LMF1 / RFU, IPO11 / Fold change vs veh, IPO11 / RFU, DFFB / Fold change vs veh, DFFB / RFU, FOXP1 / Fold change vs veh, FOXP1 / RFU, CARD8 / Fold change vs veh, CARD8 / RFU, STRN3 / Fold change vs veh, STRN3 / RFU, ADK / Fold change vs veh, ADK / RFU, RASSF2 / Fold change vs veh, RASSF2 / RFU, WIPF1 / Fold change vs veh, WIPF1 / RFU, LARP1B / Fold change vs veh, LARP1B / RFU, RASA1 / Fold change vs veh, RASA1 / RFU, RB1 / Fold change vs veh, RB1 / RFU, PPFIA1 / Fold change vs veh, PPFIA1 / RFU, MAT2A / Fold change vs veh, MAT2A / RFU, CCT5 / Fold change vs veh, CCT5 / RFU, WDR92 / Fold change vs veh, WDR92 / RFU, CUX1 / Fold change vs veh, CUX1 / RFU, TTC7A / Fold change vs veh, TTC7A / RFU, TMEM135 / Fold change vs veh, TMEM135 / RFU, DEPTOR / Fold change vs veh, DEPTOR / RFU, CPM / Fold change vs veh, CPM / RFU, DNAJB6 / Fold change vs veh, DNAJB6 / RFU, CACNA2D3 / Fold change vs veh, CACNA2D3 / RFU, DTX4 / Fold change vs veh, DTX4 / RFU, TFCP2 / Fold change vs veh, TFCP2 / RFU, GMCL1 /// GMCL1P1 / Fold change vs veh, GMCL1 /// GMCL1P1 / RFU, AEBP2 / Fold change vs veh, AEBP2 / RFU, SNHG1 /// SNORD22 /// SNORD25 /// SNORD26 /// SNORD27 /// SNORD28 /// SNORD29 /// SNORD31 / Fold change vs veh, SNHG1 /// SNORD22 /// SNORD25 /// SNORD26 /// SNORD27 /// SNORD28 /// SNORD29 /// SNORD31 / Fold change (Aza/veh), C12orf56 (ProbeSet 11735607_a_at) / Fold change (ACY-1035/veh), C12orf56 (ProbeSet 11735607_a_at) / Fold change (Aza/veh), FGFR1OP (ProbeSet 11751329_s_at) / Fold change (ACY-1035/veh), FGFR1OP (ProbeSet 11751329_s_at) / Fold change (Aza/veh), VPS36 (ProbeSet 11739960_a_at) / Fold change (ACY-1035/veh), VPS36 (ProbeSet 11739960_a_at) / RFU SYPL1 (11715823_x_at) / Fold change /veh SYPL1 (11715823_x_at) / RFU IGFBP7 (11715501_s_at) / Fold change /veh IGFBP7 (11715501_s_at) / RFU REEP3 (11722064_at) / Fold change /veh REEP3 (11722064_at) / RFU IGLL1 (11728026_x_at) / Fold change /veh IGLL1 (11728026_x_at): dose or concentration left out as unconfirmed
Details: MV-4-11 cells, 48 hours

`Nc1ncn([C@@H]2O[C@H](CO)[C@@H](O)[C@H]2O)c(=O)n1` [azacitidine] was tested, and the “RFU C5orf56 (11738088_a_at)” value was 66.32 RFU.
